Measurements reported in patent US4308168A, “Vapor phase corrosion inhibitor compositions and method of inhibiting corrosion using said compositions” (priority 1978, dated 1981).

Experiments:
[1] = Rust formation on polished carbon steel at a distance of 25 cm in closed vessel (vapor phase, condensed water); set-up: key: The amount of the rust is less than that in the blank test.; x: The amount of the rust is the same as that in the blank test; conditions: 20 mg sample, 5-liter vessel, 20°±2° C., observed 5 hours after water condensation
Experimental: A laboratory dish containing 20 milligrams of each sample obtained in the preceding Examples was added to a 5-liter glass vessel containing 50 milliliters of 30% aqueous solution of glycerin.
A piece of polished carbon steel (JIS G-4051) was arranged at the upper part of the vessel, at a distance of 25 centimeters from the dish. After keeping the vessel at 20°±2° C. during 1-5 days, water droplets were condensed on a surface of steel from moisture by pouring cold water into an aluminum pipe, and after 5 hours the presence of the rust on the steel piece was observed.

[2] = ambient temperatures; cited from earlier work
[3] = prior-art inhibitors; mineral oil; cited from earlier work
[4] = Oral acute toxicity, LD50 in rats; conditions: rat, in vivo, rats weighing 90 grams, fasted 24 hours, one week
Experimental: Specifics of the chemicals listed in Table 2 were administered orally in various concentration to respective groups of 10 rats weighing 90 grams after fasting for 24 hours.
After oral administration of the chemical, the rats were fed with a sufficient amount of a diet and water and kept in a thermo-hygrostat at a temperature of 25° C. and humidity of 60% during one week to determine the LD50.

solubility in water (Solubility in water)	SMILES	presence of rust on steel piece, after leaving for 1 day [1]	presence of rust on steel piece, after leaving for 5 days [1]	distance of diffusion of gas [2]	solubility in oil [3]	LD50 at 168 h [4]
–	CC(C)(C)OC(=O)CN	o	o	–	–	–
–	C1CCC(NC2CCCCC2)CC1.O=[N+]([O-])O [DICHAN, dicyclohexylamine nitrate, reference compound]	x	x	about 30 cm.	no solubility in oil	200 mg/kg
–	C1CCC(NC2CCCCC2)CC1 [FERROGUARD]	–	–	–	only slightly soluble in mineral oil	–
–	CNCC(=O)OC(C)(C)C [N-methylglycine-tert-butyl ester, N-methylglycine-tert-butylester]	o	o	–	–	–
–	C1CCC(NC2CCCCC2)CC1 [dicyclohexylamine, reference compound]	–	–	–	–	500 mg/kg
–	CC(C)(C)OC(=O)[C@@H](N)Cc1ccccc1 [phenylalanine-tert-butyl ester, phenylalanine-tert-butylester]	o	o	–	–	–
–	CC(C)(C)OC(=O)[C@@H]1CCCN1 [proline-tert-butyl ester, proline-tert-butylester]	o	o	–	–	> 5000 mg/kg
–	CCOC(=O)C(C)N (stereo not drawn) [α-alanine ethyl ester]	o	o	–	–	> 5000 mg/kg
wholly soluble in water	CC(N)C(=O)OC(C)(C)C (stereo not drawn) [α-alanine-tert-butyl ester, α-alanine-tert-butylester]	o	o	–	–	–
wholly soluble in water	CC(C)(C)OC(=O)CCN [β-alanine-tert-butyl ester, β-alanine-tert-butylester]	o	o	–	–	–
